Laboratory results reported in article PMC5355235, “FLT3 activating mutations display differential sensitivity to multiple tyrosine kinase inhibitors” (Oncotarget, 2017).
Where a chain is given by its changes, count along the chain named.

Columns and labels:
Type in all cases: cell-based
[1] = system: FLT3/ITD; assay: FLT3/ITD autophosphorylation and signaling pathways, Western blot; conditions: FLT3/ITD cells, 1 h, concentration-dependent
Description: (§1) Activated FLT3 expression was measured by performing immunoprecipitation, SDS-PAGE and Western blotting as previously described. Specifically, 10^7 cells were washed in medium and treated with inhibitor for 1 h followed by stimulation with 25 ng/ml of FLT3 ligand for 15 minutes where indicated. Cells were washed twice with ice-cold PBS and lysed in 300 µl of NP-40 lysis buffer (150 mM NaCl, 20 mM TrisHCl (pH7.4), 10% glycerol, 1% NP-40, 10 mM EDTA, 100 mM NaF) with 2 mM Na3VO4 and protease inhibitors (Complete Tablets, Roche, Mannheim, Germany) at 4°C for 30 m. Cell lysate was harvested by centrifugation at 13,000 × g for 30 m at 4°C. FLT3 S-18 antibody was incubated with 500 µg lysate overnight at 4°C followed by immunoprecipitation with protein A-agarose beads for 2 h. Beads were washed once in Tris buffered saline with 1% Tween-20 (TBST) and twice in TBS. Samples were boiled in sodium dodecyl sulfate (SDS) sample buffer prior to separating in a 8% SDS-polyacrylamide gel (SDS-PAGE). Proteins were transferred to a polyvinyl diflouride (PVDF) membrane (Millipore, Bedford, MA, USA) and detected by 4G10 phosphotyrosine antibody and anti-FLT3 S-18 antibody. FLT3 was visualized using the Odyssey Infra Red Imaging System from Li-Cor (Lincoln, NE, USA) using AlexaFluor 680 goat anti-mouse and AlexaFluor 800 goat anti-rabbit antibodies. Phosphorylation of the FLT3 downstream signaling mediators, STAT5, AKT and MAP kinase was investigated by loading 50 µg of whole cell lysate and probing with the indicated antibodies. The membrane was washed and incubated in goat anti-rabbit secondary antibody conjugated to horseradish peroxidase followed by enhanced chemiluminescence (ECL). The membrane was subsequently stripped in 200 mM glycine buffer, pH 2.5 with 0.1% Tween-20 and reprobed for STAT5, AKT and MAP kinase expression using the respective antibodies.

[2] = target: T1, wild-type FLT3 (Homo sapiens, UniProt P36888); assay: Wild-type FLT3 autophosphorylation in FL-stimulated BaF3/WT-FLT3 cells; conditions: TKI 1 h, then 25 ng/ml human FLT3 ligand 15 min
T1 construct: expressed in transfected cells; host or cells: BaF3
T1 sequence (P36888 27-993): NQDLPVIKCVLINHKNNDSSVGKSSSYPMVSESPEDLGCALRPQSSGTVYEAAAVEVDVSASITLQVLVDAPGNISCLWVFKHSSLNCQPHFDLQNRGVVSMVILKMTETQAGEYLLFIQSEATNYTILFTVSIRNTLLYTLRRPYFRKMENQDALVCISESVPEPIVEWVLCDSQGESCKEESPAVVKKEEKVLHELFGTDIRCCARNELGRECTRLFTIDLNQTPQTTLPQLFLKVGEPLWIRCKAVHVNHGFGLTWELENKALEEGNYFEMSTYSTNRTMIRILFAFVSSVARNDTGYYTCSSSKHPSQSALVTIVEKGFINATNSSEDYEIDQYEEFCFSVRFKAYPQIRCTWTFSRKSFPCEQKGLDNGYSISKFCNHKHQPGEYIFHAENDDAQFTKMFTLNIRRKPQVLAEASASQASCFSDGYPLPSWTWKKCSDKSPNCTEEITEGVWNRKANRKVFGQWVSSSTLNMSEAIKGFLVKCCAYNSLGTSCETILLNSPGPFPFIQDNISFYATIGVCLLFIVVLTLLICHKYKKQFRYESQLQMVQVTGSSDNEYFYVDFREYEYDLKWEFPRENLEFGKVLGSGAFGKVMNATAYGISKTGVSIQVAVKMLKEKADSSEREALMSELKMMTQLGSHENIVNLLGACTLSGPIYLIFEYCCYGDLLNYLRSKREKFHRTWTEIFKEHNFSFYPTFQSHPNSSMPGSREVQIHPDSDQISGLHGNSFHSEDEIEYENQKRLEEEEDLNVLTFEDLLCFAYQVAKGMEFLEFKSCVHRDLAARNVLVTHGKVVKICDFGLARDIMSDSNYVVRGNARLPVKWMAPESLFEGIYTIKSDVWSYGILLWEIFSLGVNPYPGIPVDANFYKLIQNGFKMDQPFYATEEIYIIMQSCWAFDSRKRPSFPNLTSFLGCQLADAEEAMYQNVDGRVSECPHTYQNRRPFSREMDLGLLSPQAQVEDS
Description: Figure 3 Inhibition of wild-type FLT3 signaling pathways by FLT3 TKI BaF3/WT-FLT3 cells were treated with FLT3 TKI at the indicated concentrations for 1 h at 37°C then stimulated with 25ng/ml of human FLT3 ligand for 15 minutes, followed by immunoprecipitation for FLT3, SDS-PAGE and WB for FLT3 and phospho-FLT3 (PFLT3).
Activated FLT3 expression was measured by performing immunoprecipitation, SDS-PAGE and Western blotting as previously described. […] Specifically, 10^7 cells were washed in medium and treated with inhibitor for 1 h followed by stimulation with 25 ng/ml of FLT3 ligand for 15 minutes where indicated. Cells were washed twice with ice-cold PBS and lysed in 300 µl of NP-40 lysis buffer (150 mM NaCl, 20 mM TrisHCl (pH7.4), 10% glycerol, 1% NP-40, 10 mM EDTA, 100 mM NaF) with 2 mM Na3VO4 and protease inhibitors (Complete Tablets, Roche, Mannheim, Germany) at 4°C for 30 m. Cell lysate was harvested by centrifugation at 13,000 × g for 30 m at 4°C. FLT3 S-18 antibody was incubated with 500 µg lysate overnight at 4°C followed by immunoprecipitation with protein A-agarose beads for 2 h. Beads were washed once in Tris buffered saline with 1% Tween-20 (TBST) and twice in TBS. […] Proteins were transferred to a polyvinyl diflouride (PVDF) membrane (Millipore, Bedford, MA, USA) and detected by 4G10 phosphotyrosine antibody and anti-FLT3 S-18 antibody. […]

[3] = target: T2, FLT3 D835Y (Homo sapiens, UniProt P36888, D835Y); assay: FLT3 autophosphorylation, immunoprecipitation/Western blot, D835Y; conditions: FLT3 D835Y cells, highest concentrations tested, 1 h
T2 construct: expressed in transfected cells; host or cells: BaF3
T2 sequence (P36888 27-993 D835Y): T1 sequence (P36888 27-993) with D809Y
Description: as §1, with “Phosphorylation of the FLT3 downstream signaling mediators, STAT5, AKT and MAP kinase was investigated by loading 50 µg of whole cell lysate and probing with the indicated antibodies. The membrane was washed and incubated in goat anti-rabbit secondary antibody conjugated to horseradish peroxidase followed by enhanced chemiluminescence (ECL). The membrane was subsequently stripped in 200 mM glycine buffer, pH 2.5 with 0.1% Tween-20 and reprobed for STAT5, AKT and MAP kinase expression using the respective antibodies.” left out

For `Cc1cc2ncc(-c3ccccc3)nc2cc1C` [AG1295], the “Inhibition of FLT3 autophosphorylation and phosphorylation of STAT5, AKT and Map kinase” value [1] was “inhibited FLT3 autophosphorylation”, the IC50 [2] was 500 nM and the “Inhibition of FLT3 autophosphorylation” value [3] was “markedly reduced or absent inhibition”.
